Laboratory results as given in the supplement of paper PMC11061612.

Tests used:
Assay in all cases: combination Emax (second highest fraction inhibited in the dose matrix, 72 h); higher = more inhibition; extreme values may be limits of the assay
[1] = test system: MM1S (Plasma Cell Myeloma)
Procedure, shortened: (§1)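 Cell lines grown in DMEM/F12 or RPMI with 10% FBS were plated in 1536-well plates and held 24 hours at 37°C, 5% CO2 before 72 hours of exposure to two-drug dose matrices, with DMSO typically at 0.2%. CellTiter-Glo 2.0 luminescence gave viability, which was converted to inhibition. Vehicle wells were set to 0 and blank wells to 1. Combination Emax is the second-highest inhibition in the matrix, and Bliss excess is the observed combination effect minus the expected EA + EB − EA·EB, where EA and EB are the single-agent effects.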

AM-38 (Glioblastoma) = test system: AM-38 (Glioblastoma)
Procedure, shortened: as §1

[2] = test system: SiHa (Cervical Carcinoma)
Procedure, shortened: as §1

[3] = test system: COR-L88 (Small Cell Lung Carcinoma)
Procedure, shortened: as §1

KALS-1 (Glioblastoma) = test system: KALS-1 (Glioblastoma)
Procedure, shortened: as §1

[4] = test system: Raji (Burkitt's Lymphoma)
Procedure, shortened: as §1

[5] = test system: P32-ISH (Burkitt's Lymphoma)
Procedure, shortened: as §1

[6] = test system: CL-11 (Colorectal Carcinoma)
Procedure, shortened: as §1

[7] = test system: PL4 (Pancreatic Carcinoma)
Procedure, shortened: as §1

[8] = test system: TUR (Acute Myeloid Leukemia)
Procedure, shortened: as §1

[9] = test system: SUP-M2 (T-Cell Non-Hodgkin's Lymphoma)
Procedure, shortened: as §1

[10] = test system: SNU-C2B (Colorectal Carcinoma)
Procedure, shortened: as §1

[11] = test system: RCC-JW (Kidney Carcinoma)
Procedure, shortened: as §1

T47D (Breast Carcinoma) = test system: T47D (Breast Carcinoma)
Procedure, shortened: as §1

[12] = test system: OAW-28 (Ovarian Carcinoma)
Procedure, shortened: as §1

[13] = test system: LS-1034 (Colorectal Carcinoma)
Procedure, shortened: as §1

UACC-257 (Melanoma) = test system: UACC-257 (Melanoma)
Procedure, shortened: as §1

[14] = test system: MS-1 (Small Cell Lung Carcinoma)
Procedure, shortened: as §1

IST-MEL1 (Melanoma) = test system: IST-MEL1 (Melanoma)
Procedure, shortened: as §1

[15] = test system: NCI-H3118 (Head and Neck Carcinoma)
Procedure, shortened: as §1

SMILES	combination Emax [1]	combination Emax (AM-38 (Glioblastoma))	combination Emax [2]	combination Emax [3]	combination Emax (KALS-1 (Glioblastoma))	combination Emax [4]	combination Emax [5]	combination Emax [6]	combination Emax [7]	combination Emax [8]	combination Emax [9]	combination Emax [10]	combination Emax [11]	combination Emax (T47D (Breast Carcinoma))	combination Emax [12]	combination Emax [13]	combination Emax (UACC-257 (Melanoma))	combination Emax [14]	combination Emax (IST-MEL1 (Melanoma))	combination Emax [15]
Cc1c2c(nn1C)CSCc1cc(n(C)n1)CSc1cc(c3ccccc3c1)OCCCc1c(C(=O)O)n(C)c3c-2c(Cl)ccc13 [AZD5991] + C=CCn1c(=O)c2cnc(Nc3ccc(N4CCN(C)CC4)cc3)nc2n1-c1cccc(C(C)(C)O)n1 [AZD1775] (first compound max 1 µM, partner max 1 µM)	0.992	0.53	0.314	0.744	0.886	0.916	1	0.507	0.737	0.965	1	0.497	0.279	0.574	0.347	0.481	0.294	0.916	0.556	0.9
Cc1c2c(nn1C)CSCc1cc(n(C)n1)CSc1cc(c3ccccc3c1)OCCCc1c(C(=O)O)n(C)c3c-2c(Cl)ccc13 [AZD5991] + CC1(C)CCC(CN2CCN(c3ccc(C(=O)NS(=O)(=O)c4ccc(NCC5CCOCC5)c([N+](=O)[O-])c4)c(Oc4cnc5[nH]ccc5c4)c3)CC2)=C(c2ccc(Cl)cc2)C1 [Venetoclax] (first compound max 1 µM, 7x7, partner max 1 µM)	0.99	0.597	0.137	0.817	0.305	0.682	1	0.137	0.234	0.637	0.994	0.201	0.23	0.434	0.687	0.152	0.308	0.76	0.2	0.412
Cc1c2c(nn1C)CSCc1cc(n(C)n1)CSc1cc(c3ccccc3c1)OCCCc1c(C(=O)O)n(C)c3c-2c(Cl)ccc13 [AZD5991] + CN(C)CCCOc1ccc(-c2ccc3ncc4c(c3c2)n(C2CCOCC2)c(=O)n4C)cn1 [AZD0156] (first compound max 1 µM, 7x7, partner max 1 µM)	0.992	0.677	0.326	0.3	0.273	0.704	1	0.164	0.357	0.477	1	0.215	0.289	0.749	0.25	0.217	0.277	0.524	0.196	0.314
Cc1c2c(nn1C)CSCc1cc(n(C)n1)CSc1cc(c3ccccc3c1)OCCCc1c(C(=O)O)n(C)c3c-2c(Cl)ccc13 [AZD5991] + C[C@@H]1COCCN1C2=NC(=NC(=C2)C3(CC3)[S@](=N)(=O)C)C4=C5C=CNC5=NC=C4 [AZD6738] (first compound max 1 µM, 7x7, partner max 10 µM)	1	0.771	0.318	0.671	0.926	0.974	1	0.645	0.761	0.99	1	0.49	0.547	0.44	0.52	0.673	0.252	0.826	0.788	0.601
Cc1c2c(nn1C)CSCc1cc(n(C)n1)CSc1cc(c3ccccc3c1)OCCCc1c(C(=O)O)n(C)c3c-2c(Cl)ccc13 [AZD5991] + C[C@@H](Nc1cc(F)cc(F)c1)c1cc(C(=O)N(C)C)cc2c(=O)cc(N3CCOCC3)oc12 [AZD8186] (first compound max 1 µM, 7x7, partner max 3 µM)	0.958	0.436	0.356	0.221	0.436	0.749	1	0.155	0.421	0.391	0.996	0.177	0.461	0.504	0.418	0.172	0.28	0.48	0.303	0.33
Cc1c2c(nn1C)CSCc1cc(n(C)n1)CSc1cc(c3ccccc3c1)OCCCc1c(C(=O)O)n(C)c3c-2c(Cl)ccc13 [AZD5991] + Cc1cc2ncnn2cc1Nc1ncc2c(n1)n(C1CCOCC1)c(=O)n2C [AZD7648] (first compound max 1 µM, 7x7, partner max 10 µM)	1	0.615	0.255	0.297	0.377	0.728	1	0.133	0.386	0.557	1	0.158	0.319	0.475	0.264	0.272	0.244	0.564	0.291	0.308
